What was measured:
WDR5 [1] = molecular target: T1, WDR5 (Homo sapiens, UniProt P61964); test: Surface Plasmon Resonance (SPR) assay; assay type: binding; design: Full length WDR5 with an N-terminal His tag and C-terminal AviTag; His tag (N); made in house; host or cells: E. coli; conditions: read-out: SPR Kd
How it was run: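 Full-length biotinylated WDR5 (N-His, C-AviTag, E. coli) captured (~3000 RU) on streptavidin SA chip; Biacore T200. HBS-EP pH 7.4 plus 5% DMSO running buffer, 40 μl/min.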

MV4-11 cells = test: Cell proliferation assay (ATPlite); assay type: cell-based; conditions: Homo sapiens, 120 h; MV4-11 cells, five days; read-out: GI MV411 EC50
How it was run: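 ATPlite luminescence after five days' culture (37° C, 5% CO2) gives viability. Compounds dosed in 10 concentrations up to 10 μM against DMSO; 1,000 cells/well seeded in Alpha-MEM/10% FBS.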

WDR5 [2] = molecular target: T1, WDR5; test: Fluorescence Polarization (FP) binding assay
How it was run: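 Buffer was pH 6.5 sodium phosphate (80 mM) with 20 mM KCl and 0.008% Triton X-100; 9-Ala-FAM probe at 20 nM used 0.05 μM WDR5 and 480/540 nm polarization, H3 (1-15) probe at 30 nM used 0.3 μM WDR5 and 485/528 nm. Quadruplicate data were hyperbola-fitted to give Kdisp.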

Row | Kd (WDR5 [1]) | EC50 (MV4-11 cells) | IC50 (WDR5 [2]) | SMILES
1 | 0.46 nM | 285 nM | 20.1 nM | COc1cnc(N2CCC=C(c3c(F)cc(N4CCN(C)[C@@H](C)C4)c(NC(=O)c4c[nH]c(=O)cc4C(F)(F)F)c3F)C2)nc1 [Example 52, (S)—N-(6-(3,4-dimethylpiperazin-1-yl)-2,4-difluoro-3-(1-(5-methoxypyrimidin-2-yl)-1,2,5,6-tetrahydropyridin-3-yl)phenyl)-6-oxo-4-(trifluoromethyl)-1,6-dihydropyridine-3-carboxamide]
2 | 1.55 nM | 38.3 nM | 16 nM | C[C@H]1CN(c2cc(F)c(C3=CCN(c4ncc(F)cn4)C3)c(F)c2NC(=O)c2c[nH]c(=O)cc2C(F)F)CCN1C [Example 91, (S)-4-(difluoromethyl)-N-(6-(3,4-dimethylpiperazin-1-yl)-2,4-difluoro-3-(1-(5-fluoropyrimidin-2-yl)-2,5-dihydro-1H-pyrrol-3-yl)phenyl)-6-oxo-1,6-dihydropyridine-3-carboxamide]
3 | 1.65 nM | 29.9 nM | 14.2 nM | C[C@H]1CN(c2cc(F)c(C3=CCN(c4ccnc(C#N)n4)CC3)c(F)c2NC(=O)c2c[nH]c(=O)cc2C(F)F)CCN1C [Example 108, (S)—N-(3-(1-(2-cyanopyrimidin-4-yl)-1,2,3,6-tetrahydropyridin-4-yl)-6-(3,4-dimethylpiperazin-1-yl)-2,4-difluorophenyl)-4-(difluoromethyl)-6-oxo-1,6-dihydropyridine-3-carboxamide]
4 | 1.4 nM | 30.9 nM | 14.5 nM | COc1cc(N2CC=C(c3c(F)cc(N4C[C@@H](C)N(C)[C@@H](C)C4)c(NC(=O)c4c[nH]c(=O)cc4C(F)(F)F)c3F)CC2)ncn1 [Example 140, N-(2,4-difluoro-3-(1-(6-methoxypyrimidin-4-yl)-1,2,3,6-tetrahydropyridin-4-yl)-6-((3S,5R)-3,4,5-trimethylpiperazin-1-yl)phenyl)-6-oxo-4-(trifluoromethyl)-1,6-dihydropyridine-3-carboxamide]
5 | 0.71 nM | 37.6 nM | 19.5 nM | C[C@@H]1CN(c2cc(F)c(C3=CCN(c4ncc(F)cn4)C3)c(F)c2NC(=O)c2c[nH]c(=O)cc2C(F)(F)F)C[C@H](C)N1C [Example 147, N-(2,4-difluoro-3-(1-(5-fluoropyrimidin-2-yl)-2,5-dihydro-1H-pyrrol-3-yl)-6-((3S,5R)-3,4,5-trimethylpiperazin-1-yl)phenyl)-6-oxo-4-(trifluoromethyl)-1,6-dihydropyridine-3-carboxamide]
6 | 1.16 nM | 71.9 nM | 13.3 nM | C[C@@H]1CN(c2ncc(-c3c(F)cc(N4CCN(C)[C@@H](C)C4)c(NC(=O)c4cn(C)c(=O)cc4C(F)(F)F)c3F)cn2)C[C@H](C)O1 [Example 164, N-(3-(2-((2S,6R)-2,6-dimethylmorpholino)pyrimidin-5-yl)-6-((S)-3,4-dimethylpiperazin-1-yl)-2,4-difluorophenyl)-1-methyl-6-oxo-4-(trifluoromethyl)-1,6-dihydropyridine-3-carboxamide]
7 | 1.16 nM | 64.1 nM | 14.7 nM | C[C@@H]1CN(c2nccc(-c3c(F)cc(N4C[C@@H](C)N(C)[C@@H](C)C4)c(NC(=O)c4c[nH]c(=O)cc4C(F)F)c3F)n2)C[C@H](C)O1 [Example 78, 4-(Difluoromethyl)-N-(3-(2-((2S,6R)-2,6-dimethylmorpholino)pyrimidin-4-yl)-2,4-difluoro-6-((3S,5R)-3,4,5-trimethylpiperazin-1-yl)phenyl)-6-oxo-1,6-dihydropyridine-3-carboxamide]
8 | 0.93 nM | 27.6 nM | 15 nM | C[C@H]1CN(c2cc(F)c(C3=CCN(c4ccnc(C#N)n4)C3)c(F)c2NC(=O)c2c[nH]c(=O)cc2C(F)F)CCN1C [Example 106, (S)—N-(3-(1-(2-cyanopyrimidin-4-yl)-2,5-dihydro-1H-pyrrol-3-yl)-6-(3,4-dimethylpiperazin-1-yl)-2,4-difluorophenyl)-4-(difluoromethyl)-6-oxo-1,6-dihydropyridine-3-carboxamide]
9 | 2.25 nM | 20.3 nM | 16.5 nM | CC(C)[C@@H]1CN(c2ncc(-c3c(F)cc(N4CCN(C)[C@@H](C)C4)c(NC(=O)c4c[nH]c(=O)cc4C(F)(F)F)c3F)cn2)CCO1 [Example 104, N-(6-((S)-3,4-dimethylpiperazin-1-yl)-2,4-difluoro-3-(2-((R)-2-isopropylmorpholino)pyrimidin-5-yl)phenyl)-6-oxo-4-(trifluoromethyl)-1,6-dihydropyridine-3-carboxamide]
10 | 1.18 nM | 70.1 nM | 5 nM | Cc1sc(-c2c(F)cc(N3CCN(C)[C@@H](C)C3)c(NC(=O)c3ccc(F)cc3C(F)F)c2F)nc1C(=O)N1CCCC1 [Example 153, (S)-2-(difluoromethyl)-N-(6-(3,4-dimethylpiperazin-1-yl)-2,4-difluoro-3-(5-methyl-4-(pyrrolidine-1-carbonyl)thiazol-2-yl)phenyl)-4-fluorobenzamide]
11 | 1.25 nM | 210 nM | 14.1 nM | C[C@@H]1CN(c2ncc(-c3c(F)cc(N4CCN(C)[C@@H](C)C4)c(NC(=O)c4cn(C)c(=O)cc4C(F)F)c3F)cn2)C[C@@H](C)O1 [Example 162, 4-(Difluoromethyl)-N-(3-(2-((2R,6R)-2,6-dimethylmorpholino)pyrimidin-5-yl)-6-((S)-3,4-dimethylpiperazin-1-yl)-2,4-difluorophenyl)-1-methyl-6-oxo-1,6-dihydropyridine-3-carboxamide]
12 | 0.43 nM | 88.3 nM | 14 nM | C[C@@H]1CN(c2ncc(-c3c(F)cc(N4CCN(C)[C@@H](C)C4)c(NC(=O)c4ccc(F)cc4C(F)F)c3F)cn2)C[C@@H](C)O1 [Example 158, 2-(Difluoromethyl)-N-(3-(2-((2R,6R)-2,6-dimethylmorpholino)pyrimidin-5-yl)-6-((S)-3,4-dimethylpiperazin-1-yl)-2,4-difluorophenyl)-4-fluorobenzamide]
13 | 0.84 nM | 28.2 nM | 13.6 nM | CC(C)[C@@H]1CN(c2ncc(-c3c(F)cc(N4CCN(C)[C@@H](C)C4)c(NC(=O)c4c[nH]c(=O)cc4C(F)F)c3F)cn2)CCO1 [Example 117, 4-(Difluoromethyl)-N-(6-((S)-3,4-dimethylpiperazin-1-yl)-2,4-difluoro-3-(2-((R)-2-isopropylmorpholino)pyrimidin-5-yl)phenyl)-6-oxo-1,6-dihydropyridine-3-carboxamide]
14 | 0.64 nM | 92 nM | 11.4 nM | Cc1sc(-c2c(F)cc(N3CCN(C)[C@@H](C)C3)c(NC(=O)c3ccc(F)cc3C(F)(F)F)c2F)nc1C(=O)N1CCCC1 [Example 154, (S)—N-(6-(3,4-dimethylpiperazin-1-yl)-2,4-difluoro-3-(5-methyl-4-(pyrrolidine-1-carbonyl)thiazol-2-yl)phenyl)-4-fluoro-2-(trifluoromethyl)benzamide]
15 | 2.85 nM | 286 nM | 20.1 nM | C[C@@H]1CN(c2cc(F)c(-c3cnc(N4CCOCC4)nc3)c(F)c2NC(=O)c2cn(C)c(=O)cc2C(F)F)C[C@H](C)N1C [Example 40, N-(2,4-difluoro-3-(2-morpholinopyrimidin-5-yl)-6-((3S,5R)-3,4,5-trimethylpiperazin-1-yl)phenyl)-4-(difluoromethyl)-1-methyl-6-oxo-1,6-dihydropyridine-3-carboxamide]

Reference: US20200385371A1 (Propellon Therapeutics Inc., priority 2017, published 2020)
